Read-outs that look alike come from different tables or passages of the source.
Columns and labels:
[1] = system: RAW 264.7 cells
Method: (§1) A murine macrophage cell line RAW264.7 (BCRC No. 60001) was purchased from the Bioresources Collection and Research Center (BCRC) of the Food Industry Research and Development Institute (Hsinchu, Taiwan). Cells were cultured in plastic dishes containing Dulbecco’s Modified Eagle Medium (DMEM, Sigma, St. Louis, MO, USA) supplemented with 10% fetal bovine serum (FBS, Sigma, USA) in a CO2 incubator (5% CO2 in air) at 37°C and subcultured every 3 days at a dilution of 1:5 using 0.05% trypsin–0.02% EDTA in Ca^2+-, Mg^2+- free phosphate-buffered saline (DPBS).
(§2) Cells (2 × 10^5) were cultured in 96-well plate containing DMEM supplemented with 10% FBS for 1 day to become nearly confluent. Then cells were cultured with samples in the presence of 100 ng/mL LPS for 24 h. After that, the cells were washed twice with DPBS and incubated with 100 μL of 0.5 mg/mL MTT for 2 h at 37 °C testing for cell viability. The medium was then discarded and 100 μL dimethyl sulfoxide (DMSO) was added. After 30-min incubation, absorbance at 570 nm was read using a microplate reader (Molecular Devices, Sunnyvale, CA, USA).

[2] = system: LPS-induced iNOS-dependent NO production in RAW 264.7 cells; assay: Inhibition of LPS-induced iNOS-dependent NO production (Griess nitrite assay); type: cell-based, murine; conditions: RAW 264.7, 100 ng/mL LPS, 24 h; for NO level: nitrite by Griess, in µM (unit assumed); for inhibition at 12.5 µM / inhibition at 25 µM / inhibition at 50 µM / IC50 / inhibition at 100 µM: Mus musculus, RAW264.7; for inhibition at 12.5 µM: read-out: NO inhibition (% of control); for inhibition at 25 µM / inhibition at 50 µM / inhibition at 100 µM: read-out: NO inhibition (% of control) (converted)
Excerpt: The isolated compounds 1–9 were subjected into the examination of their effects on LPS-induced iNOS-dependent NO production in RAW 264.7 cells. […] The inhibitory effects of 1, 4 and 9 were less obvious. […] Among the tested compounds, 2, and 5–8 belonged to the ent-kaurane diterpenoids noted for the occurrence in the Annona species.
NO production was indirectly assessed by measuring the nitrite levels in the cultured media and serum determined by a colorimetric method based on the Griess reaction. The cells were incubated with a test sample in the presence of LPS (100 ng/mL) at 37 °C for 24 h. Then, cells were dispensed into 96-well plates, and 100 μL of each supernatant was mixed with the same volume of Griess reagent (1% sulfanilamide, 0.1% naphthyl ethylenediamine dihydrochloride, and 5% phosphoric acid) and incubated at room temperature for 10 min, the absorbance was measured at 540 nm with a Micro-Reader (Molecular Devices). By using sodium nitrite to generate a standard curve, the concentration of nitrite was measured form absorbance at 540 nm.
Experimental results were presented as the mean ± standard deviation (SD) of three parallel measurements. Statistical comparisons were made by Student’s t-test. IC50 values were estimated using a non-linear regression algorithm (SigmaPlot 8.0; SPSS Inc. Chicago, IL, USA). Statistical significance is expressed as * p < 0.05, ** p < 0.01, and *** p < 0.001.

[3] = system: LPS-induced RAW264.7 macrophages; parameters: method as in PMID 21211951; conditions: cited from earlier work
[4] = system: RAW 264.7 cells; assay: Cell viability (MTT) in the presence of LPS; conditions: RAW 264.7, 100 ng/mL LPS, 24 h; for Cell viability (% of control): MTT; for Cell toxicity (in words): 12.5–100 μM
Method: as §1, §2

[5] = system: macrophages; parameters: method as in PMID 23333629; conditions: by interfering with the activation of TAK1 and Akt, preventing NF-κB activation; cited from earlier work
[6] = system: platelet aggregation; parameters: method as in PMID 12398544; conditions: isolated from the stems of A. squamosa; cited from earlier work

| Compound | NO level ([2]; 12.5 μM) | NO level ([2]; 25 μM) | inhibition at 12.5 µM ([2]; 12.5 μM) [%] | inhibition at 25 µM ([2]; 25 μM) [%] | Inhibitory effect on NO production (in words) [2] | NO level ([2]; 50 μM) | inhibition at 50 µM ([2]; 50 μM) [%] | IC50 [2] [µM] | Cell viability (% of control) ([4]; 12.5 μM) | Cell viability (% of control) ([4]; 25 μM) | Cell viability (% of control) ([4]; 50 μM) | Cell viability (% of control) ([4]; 100 μM) | Cell toxicity (in words) [4] | NO level ([2]; 100 μM) | inhibition at 100 µM ([2]; 100 μM) [%] | also measured |
| --- | --- | --- | --- | --- | --- | --- | --- | --- | --- | --- | --- | --- | --- | --- | --- | --- |
| C=C(C)C(CC[C@@H](CO)[C@H]1CC[C@@]2(C)C3CCC4C(C)(C)[C@@H](O)[C@H](O)C[C@@]45C[C@@]35CC[C@]12C)C(C)C (stereo partly shown) [Compound 1, annonaretin A] | 36.6 ± 1.9 | 33.5 ± 0.9 | 19.3 ± 4.2 | 26.2 | less obvious |  |  |  |  |  |  |  |  |  |  | Cell viability (% of control) ([1]; 12.5 µM): 88.0 ± 1.5 % of control; Cell viability (% of control) ([1]; 25 µM): 81.2 ± 1.8 % of control; Cell viability (% of control) ([1]; 50 µM): 73.0 ± 3.6 % of control; Cell viability (% of control) ([1]; 100 µM): 66.9 ± 5.5 % of control |
| C=C1C[C@@]23CC[C@H]4[C@@](C)(CCC[C@@]4(C)C(=O)O)[C@@H]2CC[C@@H]1C3 [Compound 2, kaurenoic acid] | 34.3 ± 4.7 | 35.1 ± 1.2 | 24.5 ± 10.2 | 22.7 |  | 22.7 ± 0.5 | 50 | 50 ± 0.3 | 98.0 ± 2.2 % of control | 91.0 ± 3.6 % of control | 82.9 ± 1.2 % of control | 65.7 ± 8.6 % of control | Some cell toxicity was observed |  |  | Inhibition of NO production, prostaglandin E2 release, cyclooxygenase-2 and inducible nitric oxide synthase expression (in words) [3]: inhibit NO production |
| CC1(C)CC[C@]2(C)CC=C3[C@]4(C)CC[C@H]5C(C)(C)[C@@H](O)CC[C@]5(C)[C@H]4CC[C@@]3(C)[C@@H]2C1 [Compound 3, taraxerol] | 38.5 ± 2.3 | 39.5 ± 0.6 | 15.2 ± 5 | 13.1 |  | 35.6 ± 0.9 | 21.6 | 99.8 ± 0.4 | 93.5 ± 1.8 % of control | 92.6 ± 3.1 % of control | 88.7 ± 1.8 % of control | 81.4 ± 2.3 % of control |  | 22.6 ± 0.4 | 50.1 | Expression of proinflammatory mediators (in words) [5]: downregulate the expression of proinflammatory mediators |
| CC[C@H](CC[C@@H](C)[C@H]1CC[C@H]2[C@@H]3CC=C4C[C@@H](O)CC[C@]4(C)[C@H]3CC[C@]12C)C(C)C [Compound 4, β-sitosterol] | 38.4 ± 0.7 | 38.6 ± 3.3 | 15.5 ± 1.5 | 15.1 | less obvious |  |  |  | 82.8 ± 2.7 % of control | 80.7 ± 3.8 % of control | 65.3 ± 2.3 % of control | 55.8 ± 2.7 % of control | Some cell toxicity was observed |  |  |  |
| C[C@@]12CCC[C@](C)(C=O)C1CCC13CC(CCC12)C(C(=O)O)C3 (stereo partly drawn) [Compound 5, 16α-hydro-19-al-ent-kauran-17-oic acid] | 38.3 ± 1.3 | 33.1 ± 1.0 | 15.5 ± 2.8 | 27.1 |  | 22.1 ± 1.5 | 51.4 | 48.6 ± 1.2 | 98.9 ± 5.2 % of control | 96.5 ± 9.2 % of control | 95.9 ± 8.6 % of control | 80.2 ± 5.7 % of control |  | 14.8 ± 0.7 | 67.3 | Anti-platelet aggregation activity (in words) [6]: exhibit anti-platelet aggregation activity |
| CC[C@H](CC[C@@H](C)[C@H]1CC[C@H]2[C@@H]3C[C@@H](O)C4=CC(=O)CC[C@]4(C)[C@H]3CC[C@]12C)C(C)C [Compound 6, 6β-hydroxystigmast-4-en-3-one] | 37.0 ± 1.8 | 33.1 ± 2.4 | 18.5 ± 4 | 27.1 |  | 22.9 ± 1.1 | 49.5 | 51.5 ± 0.5 | 94.8 ± 3.1 % of control | 83.7 ± 3.5 % of control | 83.5 ± 3.0 % of control | 81.3 ± 2.8 % of control |  | 15.1 ± 0.3 | 66.7 |  |
| CC(=O)OCC1CC23CCC4[C@@](C)(CCC[C@]4(C)C(=O)O)C2CCC1C3 (stereo partly drawn) [Compound 7, 17-acetoxy-16β-ent-kauran-19-oic acid] | 42.6 ± 0.7 | 40.6 ± 2.8 | 6.2 ± 1.5 | 10.6 |  | 23.7 ± 0.2 | 47.7 | 55.5 ± 0.3 | 98.6 ± 3.1 % of control | 93.6 ± 4.0 % of control | 92.5 ± 2.8 % of control | 83.7 ± 1.6 % of control |  | 14.3 ± 0.3 | 68.5 |  |
| C[C@@]12CCC[C@](C)(C(=O)O)C1CCC13CC(CCC12)C(C(=O)O)C3 (stereo partly drawn) [Compound 8, 16α-hydro-ent-kauran-17,19-dioic acid] | 39.8 ± 1.2 | 35.4 ± 0.8 | 12.3 ± 2.6 | 21.9 |  | 23.5 ± 0.9 | 48.2 | 54.5 ± 0.8 | 98.4 ± 3.2 % of control | 94.0 ± 2.6 % of control | 88.6 ± 2.6 % of control | 82.4 ± 1.2 % of control |  | 14.4 ± 0.3 | 68.3 | melting point: 120 to 121 °C |
| COc1ccc([C@@H]2CC(=O)c3ccc(OC)cc3O2)cc1 [Compound 9, (2S)-di-O-methylquiritigenin] | 42.0 ± 1.2 | 40.4 ± 0.7 | 7.5 ± 2.7 | 11 | less obvious | 25.9 ± 2.3 | 42.9 |  | 99.9 ± 4.8 % of control | 90.0 ± 1.6 % of control | 82.6 ± 2.7 % of control | 76.2 ± 1.1 % of control | Some cell toxicity was observed |  |  |  |
